The assay concerns the target T1, human β-Secretase (soluble part, AA 1-AA 460, sBACE-Fc) (Homo sapiens, UniProt P56817).
T1 construct: The soluble part of the human β-Secretase (AA 1-AA 460) was cloned; made in house
In words: TR-FRET assay (β-secretase enzyme). In kind it is biochemical. As for the experimental part:
The enzyme used in the IGEN Cleavage-, Fluorescent-, TR-FRET- and BiaCore assays is described as follows:
The soluble part of the human β-Secretase (AA 1-AA 460) was cloned into the ASP2-Fc10-1-IRES-GFP-neoK mammalian expression vector. The gene was fused to the Fc domain of IgG1 (affinity tag) and stably cloned into SEEK 293 cells. Purified sBACE-Fc is stored in Tris buffer, pH 9.2 and has a purity of 95%.
Enzyme was diluted to 6 μg/mL and the substrate (Europium)[…](Qsy7) to 200 nM in reaction buffer (NaAcetate, chaps, triton x-100, EDTA pH 4.5). Compounds were diluted to the desired concentration in dimethyl sulfoxide (final dimethyl sulfoxide concentration in assay is 5%). […] Enzyme (9 μL) and 1 μL of compound in dimethyl sulfoxide was added to the plate, mixed and pre-incubated for 10 min. Substrate (10 μL) was added and the reaction proceeded in the dark for 15 min at RT. The reaction was stopped with the addition of 7 μL NaAcetate, pH 9. The fluorescence of the product was measured on a Victor II plate reader with an excitation wavelength of 340 nm and an emission wavelength of 615 nm. […] The dimethyl sulfoxide control defined the 100% activity level and 0% activity was defined by exclusion of the enzyme (using reaction buffer instead).
On the technique in general: In TR-FRET formats the signal depends on donor and acceptor labels being close together.

T1 sequence (P56817 22-460): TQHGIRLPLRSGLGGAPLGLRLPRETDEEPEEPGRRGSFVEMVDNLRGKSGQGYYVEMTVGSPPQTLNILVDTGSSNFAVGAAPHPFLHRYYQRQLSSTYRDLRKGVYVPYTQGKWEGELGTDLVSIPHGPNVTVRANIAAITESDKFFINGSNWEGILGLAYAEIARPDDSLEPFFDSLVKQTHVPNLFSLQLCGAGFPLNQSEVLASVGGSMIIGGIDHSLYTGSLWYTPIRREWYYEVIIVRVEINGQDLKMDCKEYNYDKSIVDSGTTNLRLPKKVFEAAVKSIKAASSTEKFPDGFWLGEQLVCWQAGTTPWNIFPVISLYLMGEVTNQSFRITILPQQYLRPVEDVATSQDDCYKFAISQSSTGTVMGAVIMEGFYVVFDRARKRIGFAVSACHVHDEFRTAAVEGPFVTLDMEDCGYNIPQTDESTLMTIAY

The IC50 is the point on the concentration scale where inhibition reaches its midpoint. Read a high IC50 as weaker potency. As for `CN1C(=O)C(c2ccc(S(F)(F)(F)(F)F)cc2)(c2cccc(-c3cc(C#N)ccn3)c2)N=C1N` (centres unmarked) [Example 42, 2-(3-{2-amino-1-methyl-5-oxo-4-[4-(pentafluoro-λ^6-sulfanyl)phenyl]-4,5-dihydro-1H-imidazol-4-yl}phenyl)pyridine-4-carbonitrile], half-maximal inhibition (IC50) required 405 nM. In the case of `CN1C(=O)C(c2ccc(S(F)(F)(F)(F)F)cc2)(c2cccc(-c3cscn3)c2)N=C1N` (centres unmarked) [Example 43, 2-amino-3-methyl-5-[4-(pentafluoro-λ^6-sulfanyl)phenyl]-5-[3-(1,3-thiazol-4-yl)phenyl]-3,5-dihydro-4H-imidazol-4-one] it was 673 nM. In the case of `CN1C(=O)C(c2ccc(S(F)(F)(F)(F)F)cc2)(c2cccc(-c3cn(C)cn3)c2)N=C1N` (centres unmarked) [Example 44, 2-amino-3-methyl-5-[3-(1-methyl-1H-imidazol-4-yl)phenyl]-5-[4-(pentafluoro-λ^6-sulfanyl)phenyl]-3,5-dihydro-4H-imidazol-4-one] it was 643 nM; in that of `CN1C(=O)C(c2ccc(S(F)(F)(F)(F)F)cc2)(c2cccc(-c3cncc(C#N)c3)c2)N=C1N` (centres unmarked) [Example 45, 5-(3-{2-amino-1-methyl-5-oxo-4-[4-(pentafluoro-λ^6-sulfanyl)phenyl]-4,5-dihydro-1H-imidazol-4-yl}phenyl)pyridine-3-carbonitrile], 59 nM; in that of `CN1C(=O)C(c2ccc(S(F)(F)(F)(F)F)cc2)(c2cccc(-c3cccc(Cl)c3F)c2)N=C1N` (centres unmarked) [Example 46, 2-amino-5-(3′-chloro-2′-fluorobiphenyl-3-yl)-3-methyl-5-[4-(pentafluoro-λ^6-sulfanyl)phenyl]-3,5-dihydro-4H-imidazol-4-one], 694 nM. The value for `COc1ccc(F)c(-c2cccc(C3(c4ccc(S(F)(F)(F)(F)F)cc4)N=C(N)N(C)C3=O)c2)c1F` (centres unmarked) [Example 47, 2-amino-5-(2′,6′-difluoro-3′-methoxybiphenyl-3-yl)-3-methyl-5-[4-(pentafluoro-λ^6-sulfanyl)phenyl]-3,5-dihydro-4H-imidazol-4-one] was 38 nM; that for `CN1C(=O)C(c2cccc(S(F)(F)(F)(F)F)c2)(c2ccc(F)c(-c3cncnc3)c2)N=C1N` (centres unmarked) [Example 48, 2-Amino-5-(4-fluoro-3-pyrimidin-5-ylphenyl)-3-methyl-5-[3-(pentafluoro-λ^6-sulfanyl)phenyl]-3,5-dihydro-4H-imidazol-4-one 0.25 acetate] was 487 nM. `CN1C(=O)C(c2cccc(S(F)(F)(F)(F)F)c2)(c2ccc(F)c(-c3cncc(C#N)c3)c2)N=C1N` (centres unmarked) [Example 49, 5-(5-{2-Amino-1-methyl-5-oxo-4-[3-(pentafluoro-λ^6-sulfanyl)phenyl]-4,5-dihydro-1H-imidazol-4-yl}-2-fluorophenyl)nicotinonitrile 0.25 acetate] yielded an IC50 of 1140 nM. In the case of `CN1C(=O)C(c2cccc(S(F)(F)(F)(F)F)c2)(c2ccc(F)c(-c3cccnc3)c2)N=C1N` (centres unmarked) [Example 50, 2-Amino-5-(4-fluoro-3-pyridin-3-ylphenyl)-3-methyl-5-[3-(pentafluoro-λ^6-sulfanyl)phenyl]-3,5-dihydro-4H-imidazol-4-one] it was 317 nM. In the case of `COc1cncc(-c2cc(C3(c4cccc(S(F)(F)(F)(F)F)c4)N=C(N)N(C)C3=O)ccc2F)c1` (centres unmarked) [Example 51, 2-Amino-5-[4-fluoro-3-(5-methoxypyridin-3-yl)phenyl]-[3-methyl-5-3-(pentafluoro-6-sulfanyl)phenyl]-3,5-dihydro-4H-imidazol-4-one] it was 305 nM.

The compound `CN1C(=O)C(c2cccc(S(F)(F)(F)(F)F)c2)(c2ccc(F)c(-c3cncc(F)c3)c2)N=C1N` (centres unmarked) [Example 52, 2-Amino-5-[4-fluoro-3-(5-fluoropyridin-3-yl)phenyl]-3-methyl-5-[3-(pentafluoro-λ^6-sulfanyl)phenyl]-3,5-dihydro-4H-imidazol-4-one] registered an IC50 of 1190 nM.

These data come from US20090233943A9, “NEW COMPOUNDS 835” (priority 2007, published 2009).
